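How tested: cells in 96-well plates exposed to compound for 48 hours at five concentrations. At the GI50, growth is halved.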 Calls of active or inactive are those of the source. Cut-off read from the data, not from the text of the source: active = GI50 up to about 1.1 µM and inactive = higher.
Key:
Experiment in all cases: inhibition of tumour cell growth, NCI panel, 48 h
786-0 = test system: 786-0
BT-549 = test system: BT-549
CAKI-1 = test system: CAKI-1
CCRF-CEM = test system: CCRF-CEM
HCT-15 = test system: HCT-15
Hs-578T = test system: Hs-578T
K562 = test system: K562
KM-20L2 = test system: KM-20L2
KM12 = test system: KM12
LOX IMVI = test system: LOX IMVI
MDA-MB-435 = test system: MDA-MB-435
NCI-H23 = test system: NCI-H23
NCI/ADR-RES = test system: NCI/ADR-RES
OVCAR-8 = test system: OVCAR-8
SF-268 = test system: SF-268
SF-295 = test system: SF-295
SK-MEL-5 = test system: SK-MEL-5
SN12C = test system: SN12C
T47D = test system: T47D
UACC-62 = test system: UACC-62

Row | Compound | GI50 (786-0) | GI50 (BT-549) | GI50 (CAKI-1) | GI50 (CCRF-CEM) | GI50 (HCT-15) [µM] | GI50 (Hs-578T) | GI50 (K562) | GI50 (KM-20L2) | GI50 (KM12) | GI50 (LOX IMVI) | GI50 (MDA-MB-435) | GI50 (NCI-H23) | GI50 (NCI/ADR-RES) | GI50 (OVCAR-8) | GI50 (SF-268) | GI50 (SF-295) | GI50 (SK-MEL-5) | GI50 (SN12C) | GI50 (T47D) | GI50 (UACC-62)
1 | CN(C)C(=S)NC(=S)Nc1ccc2ccccc2c1 | 12.8 µM (inactive) | 16 µM (inactive) | 13.9 µM (inactive) | 0.804 µM (active) | 9.89 | 33.1 µM (inactive) | 2.65 µM (inactive) | 10 µM (inactive) | 12.4 µM (inactive) | 6.64 µM (inactive) | 18.8 µM (inactive) | 9.64 µM (inactive) | 13.8 µM (inactive) | 9.64 µM (inactive) | 10.3 µM (inactive) | 4.55 µM (inactive) | 7.18 µM (inactive) | 2.69 µM (inactive) | 9.55 µM (inactive) | 2.14 µM (inactive)
2 | O=C(CCN1CCCCC1)Nc1ccc2c(c1)C(=O)c1ccc(NC(=O)CCN3CCCCC3)cc1C2=O | 1.61 µM (inactive) | 14.6 µM (inactive) | 12.6 µM (inactive) | 2.37 µM (inactive) | 2.59 | 11.7 µM (inactive) | 2.25 µM (inactive) | 18 µM (inactive) | 1.62 µM (inactive) | 1.75 µM (inactive) | 1.82 µM (inactive) | 6.05 µM (inactive) | 10.9 µM (inactive) | 5.57 µM (inactive) | 7.96 µM (inactive) | 5.22 µM (inactive) | 5.71 µM (inactive) | 5.81 µM (inactive) | 16.5 µM (inactive) | 19.9 µM (inactive)
3 | N#CCCN(C1=NN(C(=O)CC(=O)Nc2ccc(Cl)cc2)C(c2ccccc2)C1)c1ccc(Cl)cc1 (stereo not given) | > 100 µM (inactive) | – | > 100 µM (inactive) | > 100 µM (inactive) | > 100 | – | > 100 µM (inactive) | > 100 µM (inactive) | > 100 µM (inactive) | > 100 µM (inactive) | – | > 100 µM (inactive) | – | > 100 µM (inactive) | > 100 µM (inactive) | > 100 µM (inactive) | > 100 µM (inactive) | > 100 µM (inactive) | – | > 100 µM (inactive)
4 | CN(C(=O)c1cccs1)C(=S)N1CCN(c2ccccn2)CC1 | > 100 µM (inactive) | – | > 100 µM (inactive) | > 100 µM (inactive) | > 100 | – | > 100 µM (inactive) | > 100 µM (inactive) | > 100 µM (inactive) | > 100 µM (inactive) | – | > 100 µM (inactive) | – | > 100 µM (inactive) | > 100 µM (inactive) | > 100 µM (inactive) | > 100 µM (inactive) | > 100 µM (inactive) | – | > 100 µM (inactive)
5 | O=C1CCCCCCCCCCC(=O)N2CCOCCOCCN1Cc1cccc(n1)C2 | > 100 µM (inactive) | – | > 100 µM (inactive) | > 100 µM (inactive) | > 100 | – | 81.1 µM (inactive) | > 100 µM (inactive) | > 100 µM (inactive) | > 100 µM (inactive) | – | > 100 µM (inactive) | – | > 100 µM (inactive) | > 100 µM (inactive) | 65.5 µM (inactive) | 61.5 µM (inactive) | > 100 µM (inactive) | – | > 100 µM (inactive)
6 | OC12c3ccccc3C3CCC4(OCCO4)C3C1c1ccccc12 (stereo not given) | > 100 µM (inactive) | – | > 100 µM (inactive) | > 100 µM (inactive) | > 100 | – | 49.8 µM (inactive) | > 100 µM (inactive) | > 100 µM (inactive) | > 100 µM (inactive) | – | > 100 µM (inactive) | – | > 100 µM (inactive) | > 100 µM (inactive) | > 100 µM (inactive) | > 100 µM (inactive) | > 100 µM (inactive) | – | > 100 µM (inactive)
